Data published in patent publication US12162890B2 (Novartis AG, priority 2015, dated 2024).

Biological target: HEK293 cells with stable expression of the GRIN1 gene and tetracycline-inducible expression of the GRIN2B gene (NMDA receptor, NR2B) (Homo sapiens, UniProt Q13224)
Test: Fluo-8 Ca2+ flux assay: reversal of Ro 25-6981-mediated suppression of the Ca2+ response to co-agonist (glutamate/glycine); also: test concentration or dose not given here
Assay type: cell-based
Details: reversal of the Ro 25-6981 suppression of the Ca2+ response to co-agonist (glutamate/glycine)

HEK293 cells with stable expression of the GRIN1 gene and tetracycline-inducible expression of the GRIN2B gene (NMDA receptor, NR2B), sequence (Q13224 27-1484, other chains not shown): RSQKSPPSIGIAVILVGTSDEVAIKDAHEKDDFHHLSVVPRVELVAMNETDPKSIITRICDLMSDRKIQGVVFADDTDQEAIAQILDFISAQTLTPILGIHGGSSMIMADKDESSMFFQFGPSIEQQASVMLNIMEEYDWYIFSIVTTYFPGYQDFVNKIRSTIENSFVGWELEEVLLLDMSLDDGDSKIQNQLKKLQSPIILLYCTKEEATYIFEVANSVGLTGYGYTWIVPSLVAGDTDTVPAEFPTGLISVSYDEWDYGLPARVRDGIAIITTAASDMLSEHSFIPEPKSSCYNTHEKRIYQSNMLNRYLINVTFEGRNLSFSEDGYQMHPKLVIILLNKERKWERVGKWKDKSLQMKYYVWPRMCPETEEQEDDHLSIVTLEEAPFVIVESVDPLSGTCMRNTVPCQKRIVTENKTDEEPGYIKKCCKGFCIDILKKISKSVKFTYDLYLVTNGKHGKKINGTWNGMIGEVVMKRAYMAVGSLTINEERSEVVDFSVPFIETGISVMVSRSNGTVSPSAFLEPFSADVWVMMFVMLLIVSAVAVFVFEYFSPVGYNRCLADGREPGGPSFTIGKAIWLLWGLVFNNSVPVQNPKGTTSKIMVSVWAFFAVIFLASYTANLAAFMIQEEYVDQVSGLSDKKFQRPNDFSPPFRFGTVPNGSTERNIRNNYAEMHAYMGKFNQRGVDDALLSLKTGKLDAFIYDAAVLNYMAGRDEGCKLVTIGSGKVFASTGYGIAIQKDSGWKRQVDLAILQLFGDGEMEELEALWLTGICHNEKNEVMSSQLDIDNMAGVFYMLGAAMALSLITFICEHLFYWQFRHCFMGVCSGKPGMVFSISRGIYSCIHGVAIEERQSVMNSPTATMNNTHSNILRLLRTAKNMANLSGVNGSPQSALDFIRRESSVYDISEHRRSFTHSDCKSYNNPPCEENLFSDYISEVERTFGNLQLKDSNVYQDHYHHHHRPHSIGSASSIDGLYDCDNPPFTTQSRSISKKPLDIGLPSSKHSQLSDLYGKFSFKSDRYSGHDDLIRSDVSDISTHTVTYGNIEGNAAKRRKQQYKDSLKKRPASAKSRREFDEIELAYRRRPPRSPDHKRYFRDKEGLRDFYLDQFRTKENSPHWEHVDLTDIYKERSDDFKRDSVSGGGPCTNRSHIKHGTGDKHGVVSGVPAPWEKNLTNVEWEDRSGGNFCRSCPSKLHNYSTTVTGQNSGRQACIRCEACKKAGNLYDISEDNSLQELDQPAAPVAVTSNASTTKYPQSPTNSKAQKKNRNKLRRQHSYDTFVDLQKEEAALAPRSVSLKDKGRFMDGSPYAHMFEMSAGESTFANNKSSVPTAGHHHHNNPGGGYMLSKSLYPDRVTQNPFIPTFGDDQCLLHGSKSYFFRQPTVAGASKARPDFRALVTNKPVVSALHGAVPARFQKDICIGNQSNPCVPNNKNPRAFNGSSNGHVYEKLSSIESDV

Response Recovered (%) | Compound
94% | O=C(Cn1ccc2scc(-c3ccc(F)c(C(F)(F)F)c3)c2c1=O)N1C[C@@H](F)[C@@H](F)C1 [Example 28, 5-(2-((3S,4R)-3,4-difluoropyrrolidin-1-yl)-2-oxoethyl)-3-(4-fluoro-3-(trifluoromethyl)phen-nyl)thieno[3,2-c]pyridin-4(5H)-one]
37% | N#Cc1cn(CC(=O)N2CCCC2)c(=O)c2c(-c3ccc(Cl)c(C(F)(F)F)c3)csc12 [Example 99, 3-(4-chloro-3-(trifluoromethyl)phenyl)-4-oxo-5-(2-oxo-2-(pyrrolidin-1-yl)ethyl)-4,5-dihydrothieno[3,2-c]pyridine-7-carbonitrile]
26% | O=C(Cn1cnc2csc(-c3ccc(Cl)cc3)c2c1=O)N1CC(F)(F)C1 [Example 348, 5-(4-chlorophenyl)-3-(2-(3,3-difluoroazetidin-1-yl)-2-oxoethyl)thieno[3,4-d]pyrimidin-4(3H)-one]
39% | Cc1cc(-c2csc3ccn(CC(=O)N4CC(C)(F)C4)c(=O)c23)cnc1Cl [Example 84, 3-(6-chloro-5-methylpyridin-3-yl)-5-(2-(3-fluoro-3-methylazetidin-1-yl)-2-oxoethyl)thieno[3,2-c]pyridin-4(5H)-one]
35% | CC(C)(O)Cn1cc(-c2ccc(F)c(Cl)c2)c2c(=O)n(CC(=O)N3CCC(F)C3)ccc21 (stereo not shown) [Example 259, 3-(3-chloro-4-fluorophenyl)-5-(2-(3-fluoropyrrolidin-1-yl)-2-oxoethyl)-1-(2-hydroxy-2-methylpropyl)-1H-pyrrolo[3,2-c]pyridin-4(5H)-one]
64% | N=C(NO)c1cn(CC(=O)N2CCCC2)c(=O)c2c(-c3ccc(F)c(C(F)(F)F)c3)csc12 [Example 108, 3-(4-fluoro-3-(trifluoromethyl)phenyl)-N-hydroxy-4-oxo-5-(2-oxo-2-(pyrrolidin-1-yl)ethyl)-4,5-dihydrothieno[3,2-c]pyridine-7-carboximidamide]
29% | O=C(Cn1ccn2ncc(-c3ccc(F)c(Cl)c3)c2c1=O)N1CC(F)(F)C1 [Example 328, 3-(3-chloro-4-fluorophenyl)-5-(2-(3,3-difluoroazetidin-1-yl)-2-oxoethyl)pyrazolo[1,5-a]pyrazin-4(5H)-one]
55% | Cn1cc(-c2ccc(Cl)c(C(F)(F)F)c2)c2c(=O)n(CC(=O)N3CC(F)(F)C3)cnc21 [Example 168, 5-(4-chloro-3-(trifluoromethyl)phenyl)-3-(2-(3,3-difluoroazetidin-1-yl)-2-oxoethyl)-7-methyl-3H-pyrrolo[2,3-d]pyrimidin-4(7H)-one]
51% | Cc1cc(-c2ccn3ccn(CC(=O)N4CC(C)(F)C4)c(=O)c23)cnc1Cl [Example 408, 8-(6-chloro-5-methylpyridin-3-yl)-2-(2-(3-fluoro-3-methylazetidin-1-yl)-2-oxoethyl)pyrrolo[1,2-a]pyrazin-1(2H)-one]
101% | O=C(Cn1ccc2[nH]cc(-c3ccc(F)c(C(F)(F)F)c3)c2c1=O)N1CC(F)(F)C1 [Example 216, 5-(2-(3,3-difluoroazetidin-1-yl)-2-oxoethyl)-3-(4-fluoro-3-(trifluoromethyl)phenyl)-1H-pyrrolo[3,2-c]pyridin-4(5H)-one]
100% | CC1(F)CN(C(=O)Cn2ccn3c(C4CC4)nc(-c4ccc(F)c(Cl)c4)c3c2=O)C1 [Example 436, 1-(3-chloro-4-fluorophenyl)-3-cyclopropyl-7-(2-(3-fluoro-3-methylazetidin-1-yl)-2-oxoethyl)imidazo[1,5-a]pyrazin-8(7H)-one]
83% | O=C(Cn1ccc2c(c(-c3ccc(F)c(C(F)(F)F)c3)cn2-c2ccccn2)c1=O)N1CCC(F)C1 (stereo not shown) [Example 225, 3-(4-fluoro-3-(trifluoromethyl)phenyl)-5-(2-(3-fluoropyrrolidin-1-yl)-2-oxoethyl)-1-(pyridin-2-yl)-1H-pyrrolo[3,2-c]pyridin-4(5H)-one]
86% | CCn1cc(-c2ccc(F)c(C(F)(F)F)c2)c2c(=O)n(CC(=O)N3CCC(F)C3)ccc21 (stereo not shown) [Example 239, 1-ethyl-3-(4-fluoro-3-(trifluoromethyl)phenyl)-5-(2-(3-fluoropyrrolidin-1-yl)-2-oxoethyl)-1H-pyrrolo[3,2-c]pyridin-4(5H)-one]
65% | COCn1cc(-c2ccc(F)c(C(F)(F)F)c2)c2c(=O)n(CC(=O)N3CCC(F)C3)ccc21 (stereo not shown) [Example 238, 3-(4-fluoro-3-(trifluoromethyl)phenyl)-5-(2-(3-fluoropyrrolidin-1-yl)-2-oxoethyl)-1-(methoxymethyl)-1H-pyrrolo[3,2-c]pyridin-4(5H)-one]
65% | O=C(Cn1cnc2[nH]cc(-c3ccc(Cl)c(C(F)(F)F)c3)c2c1=O)N1CC(F)(F)C1 [Example 166, 5-(4-chloro-3-(trifluoromethyl)phenyl)-3-(2-(3,3-difluoroazetidin-1-yl)-2-oxoethyl)-3H-pyrrolo[2,3-d]pyrimidin-4(7H)-one]
28% | O=C(Cn1ccc2cccc(-c3ccc(Cl)c(C(F)(F)F)c3)c2c1=O)N1CC(F)(F)C1 [Example 301, 8-(4-chloro-3-(trifluoromethyl)phenyl)-2-(2-(3,3-difluoroazetidin-1-yl)-2-oxoethyl)isoquinolin-1(2H)-one]
61% | CCC1(F)CN(C(=O)Cn2ccn3ccc(-c4cnc(Cl)c(Cl)c4)c3c2=O)C1 [Example 405, 8-(5,6-dichloropyridin-3-yl)-2-(2-(3-ethyl-3-fluoroazetidin-1-yl)-2-oxoethyl)pyrrolo[1,2-a]pyrazin-1(2H)-one]
4% | O=C(Cn1cnc2csc(-c3ccc(Cl)c(F)c3)c2c1=O)N1CCC(C(F)(F)F)C1 (stereo not shown) [Example 365, 5-(4-chloro-3-fluorophenyl)-3-(2-oxo-2-(3-(trifluoromethyl)pyrrolidin-1-yl)ethyl)thieno[3,4-d]pyrimidin-4(3H)-one]
46% | COCc1cn(CC(=O)N2CCC(F)C2)c(=O)c2c(-c3ccc(F)c(C(F)(F)F)c3)csc12 (stereo not shown) [Example 126, 3-(4-fluoro-3-(trifluoromethyl)phenyl)-5-(2-(3-fluoropyrrolidin-1-yl)-2-oxoethyl)-7-(methoxymethyl)thieno[3,2-c]pyridin-4(5H)-one]
−3.9% | CCC1(F)CN(C(=O)Cn2ccn3c(C)nc(-c4ccc(F)c(Cl)c4)c3c2=O)C1 [Example 431, 1-(3-chloro-4-fluorophenyl)-7-(2-(3-ethyl-3-fluoroazetidin-1-yl)-2-oxoethyl)-3-methylimidazo[1,5-a]pyrazin-8(7H)-one]
53% | O=C(Cn1ccc2[nH]cc(-c3ccc(F)c(Cl)c3)c2c1=O)N1CCC(F)C1 (stereo not shown) [Example 209, 3-(3-chloro-4-fluorophenyl)-5-(2-(3-fluoropyrrolidin-1-yl)-2-oxoethyl)-1H-pyrrolo[3,2-c]pyridin-4(5H)-one]
0% | O=C(Cn1cnc2csc(-c3ccc(Cl)cc3)c2c1=O)N1CCCCC1 [Example 350, 5-(4-chlorophenyl)-3-(2-oxo-2-(piperidin-1-yl)ethyl)thieno[3,4-d]pyrimidin-4(3H)-one]
23% | O=C(Cn1ncc2scc(-c3ccc(Cl)c(C(F)(F)F)c3)c2c1=O)N1CCCC1 [Example 335, 3-(4-chloro-3-(trifluoromethyl)phenyl)-5-(2-oxo-2-(pyrrolidin-1-yl)ethyl)thieno[2,3-d]pyridazin-4(5H)-one]
10% | O=C(Cn1cnc2[nH]cc(-c3ccc(Cl)cc3)c2c1=O)N1CCCC1C(F)(F)F (stereo not shown) [Example 152, 5-(4-chlorophenyl)-3-(2-oxo-2-(2-(trifluoromethyl)pyrrolidin-1-yl)ethyl)-3H-pyrrolo[2,3-d]pyrimidin-4(7H)-one]
57% | CCC1(F)CN(C(=O)Cn2ccc3scc(-c4ccc(F)c(C(F)(F)F)c4)c3c2=O)C1 [Example 51, 5-(2-(3-ethyl-3-fluoroazetidin-1-yl)-2-oxoethyl)-3-(4-fluoro-3-(trifluoromethyl)phen-yl)thieno[3,2-c]pyridin-4(5H)-one]
66% | CCn1cc(-c2ccc(F)c(C(F)(F)F)c2)c2c(=O)n(CC(=O)N3CCC(F)C3)cnc21 (stereo not shown) [Example 184]
48% | CCOCc1cn(CC(=O)N2CCC(F)C2)c(=O)c2c(-c3ccc(F)c(C(F)(F)F)c3)csc12 (stereo not shown) [Example 127, 7-(ethoxymethyl)-3-(4-fluoro-3-(trifluoromethyl)phenyl)-5-(2-(3-fluoropyrrolidin-1-yl)-2-oxoethyl)thieno[3,2-c]pyridin-4(5H)-one]
76% | O=C(Cn1cc(CN2CCC2)c2scc(-c3ccc(F)c(Cl)c3)c2c1=O)N1CCC(F)C1 (stereo not shown) [Example 124, 7-(azetidin-1-ylmethyl)-3-(3-chloro-4-fluorophenyl)-5-(2-(3-fluoropyrrolidin-1-yl)-2-oxoethyl)thieno[3,2-c]pyridin-4(5H)-one]
33% | N=C(NO)c1cn(CC(=O)N2CCC(F)C2)c(=O)c2c(-c3ccc(F)c(C(F)(F)F)c3)csc12 (stereo not shown) [Example 110, 3-(4-fluoro-3-(trifluoromethyl)phenyl)-5-(2-(3-fluoropyrrolidin-1-yl)-2-oxoethyl)-N-hydroxy-4-oxo-4,5-dihydrothieno[3,2-c]pyridine-7-carboximidamide]
40% | Cn1cc(-c2ccc(F)c(Cl)c2)c2c(=O)n(CC(=O)N3CC(F)(F)C3)cnc21 [Example 162, 5-(3-chloro-4-fluorophenyl)-3-(2-(3,3-difluoroazetidin-1-yl)-2-oxoethyl)-7-methyl-3H-pyrrolo[2,3-d]pyrimidin-4(7H)-one]

Compound | Response Recovered (%)
O=C(Cn1ccc2ncc(-c3ccc(F)c(C(F)(F)F)c3)n2c1=O)N1CCC(F)C1 (stereo not shown) [Example 448, 3-(4-fluoro-3-(trifluoromethyl)phenyl)-6-(2-(3-fluoropyrrolidin-1-yl)-2-oxoethyl)imidazo[1,2-c]pyrimidin-5(6H)-one] | 14%
